Experimental data published in patent US9120771B2, “Azetidine derivative and antidepressant composition including the same” (KOREA INSTITUTE OF SCIENCE AND TECHNOLOGY, priority 2011, dated 2015).
Where a name gives a salt, the structure may show the parent alone. Read-outs that look alike come from different tables or passages of the source.

What was measured:
[1] = biological target: T1, human norepinephrine transporter (Homo sapiens (Human), UniProt P23975); assay: hNET binding assay ([3H]Nisoxetine); details: for inhibition at 10 µM: read-out: hNET binding assay %-inhibition (10 uM)
Procedure: NE transporter binding assay for evaluating binding of the compound to the norepinephrine transporter was carried out using human recombinant norepinephrine transporter membrane (PerkinElmer Life and Analytical Sciences, USA) expressed in MDCK cells and radioisotope [^3H]Nisoxetine (PerkinElmer).
That is, the test drug, 6 nM [^3H]Nisoxetine, norepinephrine transporter membrane (11 ug/well), 120 mM NaCl and 50 mM Tris-HCl buffer (pH 7.4) containing 5 mM KCl were added to obtain a reaction mixture with a final volume of 0.25 ml. After incubation for 60 minutes at 4° C., the mixture was quickly passed through a Filtermat A glass fiber filter pre-soaked with 0.5% (w/v) PEI (polyethyleneimine) using Inotech Harvester (Inotech) to terminate the reaction. After washing with cold washing buffer (50 mM Tris-HCl, pH 7.4, 0.9% NaCl) solution, the filter was covered with MeltiLex and sealed in a sample bag. After drying in an oven, radioactivity was counted using MicroBeta Plus (Wallac).
Non-specific binding was measured in the presence of 1 uM desipramine. The IC50 value of the test drug was calculated from non-linear regression analysis (GraphPad Prism Program, San Diego, USA) of each %-inhibition value obtained from the drug with concentrations of 7th and 8th steps.

[2] = biological target: T2, human dopamine transporter (Homo sapiens (Human), UniProt Q01959); assay: hDAT reuptake assay (HEK-hDAT, FDSS6000); type: cell-based; details: HEK-hDAT cells
[3] = biological target: T1, human norepinephrine transporter; assay: hNET reuptake assay (HEK-hNET, FDSS6000); type: cell-based; details: HEK-hNET cells
[4] = biological target: T3, human serotonin transporter (Homo sapiens (Human), UniProt P31645); assay: hSERT reuptake assay (HEK-hSERT, FDSS6000); type: cell-based; details: HEK-hSERT cells
[5] = biological target: T2, human dopamine transporter; assay: hDAT binding assay ([3H]WIN35,428); details: for IC50: 8 nM [3H]WIN35,428; for inhibition at 10 µM: read-out: hDAT binding assay %-inhibition (10 uM);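 for all read-outs here: displacement of the radioligand from the transporter membranes, incubated 120 min at 4 °C in Tris-HCl buffer with NaCl, pH 7.4, measured by filter-bound radioactivity counting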
[6] = biological target: T3, human serotonin transporter; assay: hSERT binding assay ([3H]Imipramine); details: for inhibition at 10 µM: read-out: hSERT binding assay %-inhibition (10 uM);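 for all read-outs here: displacement of radiolabeled imipramine from the transporter, incubated 30 min at 27 °C in Tris-HCl pH 7.4 with NaCl and KCl, bound radioactivity counted after filtration, nonspecific binding defined with 200 uM imipramine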
[7] = 10 uM, membrane from MDCK cells
[8] = membrane from MDCK cells, 6 nM [3H]Nisoxetine
[9] = 10 uM, membrane from HEK293 cells
[10] = membrane from HEK293 cells, 2 nM [3H]Imipramine
[11] = 10 uM, membrane from CHO-K1 cells

T1 sequence (P23975 whole entry): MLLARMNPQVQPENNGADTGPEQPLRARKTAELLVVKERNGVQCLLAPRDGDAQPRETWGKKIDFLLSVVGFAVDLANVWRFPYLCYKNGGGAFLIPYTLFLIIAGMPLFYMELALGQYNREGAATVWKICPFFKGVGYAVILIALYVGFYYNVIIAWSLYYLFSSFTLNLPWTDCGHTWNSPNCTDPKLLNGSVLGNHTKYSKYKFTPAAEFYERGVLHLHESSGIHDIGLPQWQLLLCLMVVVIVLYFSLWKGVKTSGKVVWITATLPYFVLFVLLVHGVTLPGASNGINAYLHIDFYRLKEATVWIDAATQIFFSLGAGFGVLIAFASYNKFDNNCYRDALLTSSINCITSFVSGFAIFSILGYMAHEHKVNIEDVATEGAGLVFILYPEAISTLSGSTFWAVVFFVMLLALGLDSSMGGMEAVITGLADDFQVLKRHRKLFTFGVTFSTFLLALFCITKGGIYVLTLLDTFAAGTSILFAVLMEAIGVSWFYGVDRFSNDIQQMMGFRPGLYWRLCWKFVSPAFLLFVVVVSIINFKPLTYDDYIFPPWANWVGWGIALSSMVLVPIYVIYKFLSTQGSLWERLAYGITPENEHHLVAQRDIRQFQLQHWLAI
T3 sequence (P31645 whole entry): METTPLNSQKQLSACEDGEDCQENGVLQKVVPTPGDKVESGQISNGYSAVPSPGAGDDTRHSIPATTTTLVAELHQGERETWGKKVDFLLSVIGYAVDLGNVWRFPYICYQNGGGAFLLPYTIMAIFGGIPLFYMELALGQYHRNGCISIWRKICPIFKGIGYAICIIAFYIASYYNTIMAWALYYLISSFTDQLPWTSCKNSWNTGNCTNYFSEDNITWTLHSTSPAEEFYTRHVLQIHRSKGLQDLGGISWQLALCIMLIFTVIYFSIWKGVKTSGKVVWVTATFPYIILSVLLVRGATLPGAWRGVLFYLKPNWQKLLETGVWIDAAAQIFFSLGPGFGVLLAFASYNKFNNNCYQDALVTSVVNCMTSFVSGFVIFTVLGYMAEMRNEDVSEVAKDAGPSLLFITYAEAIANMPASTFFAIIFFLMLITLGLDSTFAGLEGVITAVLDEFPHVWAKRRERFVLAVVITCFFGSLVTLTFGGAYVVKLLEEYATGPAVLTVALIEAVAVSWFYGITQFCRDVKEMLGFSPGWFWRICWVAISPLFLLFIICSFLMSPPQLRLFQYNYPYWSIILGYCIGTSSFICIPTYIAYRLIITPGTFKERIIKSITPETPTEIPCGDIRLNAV
T2 sequence (Q01959 whole entry): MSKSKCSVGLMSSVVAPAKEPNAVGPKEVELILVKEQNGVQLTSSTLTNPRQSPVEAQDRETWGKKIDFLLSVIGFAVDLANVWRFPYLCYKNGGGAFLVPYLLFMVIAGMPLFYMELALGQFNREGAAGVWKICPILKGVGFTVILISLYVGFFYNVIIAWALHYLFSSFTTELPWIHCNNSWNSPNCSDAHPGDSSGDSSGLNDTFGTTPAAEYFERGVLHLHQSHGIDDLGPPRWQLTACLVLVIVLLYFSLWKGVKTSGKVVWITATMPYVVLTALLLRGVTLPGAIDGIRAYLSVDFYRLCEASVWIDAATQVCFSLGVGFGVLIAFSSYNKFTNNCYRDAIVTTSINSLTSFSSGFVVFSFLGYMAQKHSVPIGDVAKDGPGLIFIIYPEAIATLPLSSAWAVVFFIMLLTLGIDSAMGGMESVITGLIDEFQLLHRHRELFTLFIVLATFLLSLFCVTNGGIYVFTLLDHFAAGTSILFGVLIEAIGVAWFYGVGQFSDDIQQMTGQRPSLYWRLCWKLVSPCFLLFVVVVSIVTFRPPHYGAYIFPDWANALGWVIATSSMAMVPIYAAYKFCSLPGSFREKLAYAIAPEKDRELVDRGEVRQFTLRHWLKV

Structure (SMILES)	inhibition at 10 µM [1, 7]	IC50 [1, 8]	IC50 ([2]; Table 3)	IC50 ([3]; Table 3)	IC50 ([4]; Table 3)	IC50 ([5]; membrane from CHO-K1 cells)	inhibition at 10 µM [5]	inhibition at 10 µM [6, 9]	IC50 [6, 10]	melting point	IC50 ([2]; Table 4)	IC50 ([3]; Table 4)	IC50 ([4]; Table 4)	other results
c1ccc(OC(c2ccccc2)C2CNC2)cc1 (centres unmarked) [KHG26765, hydrochloride]	90%	1660 nM	380 nM	40 nM	50 nM	857 nM	87%	98%	112 nM	–	–	–	–	–
Cl.Clc1ccc(C(Oc2ccccc2)C2CNC2)cc1 (centres unmarked) [KHG26766, 3-((4-chlorophenyl)(phenoxy)methyl)azetidine hydrochloride]	90%	90.2 nM	150 nM	40 nM	40 nM	227 nM	94%	–	–	191 °C	–	–	–	IC50 [6]: 9.2 nM; inhibition at 10 µM [6]: 98%
Clc1ccc(C(Oc2ccccc2)C2CNC2)cc1Cl (centres unmarked) [KHG26767, 3-((3,4-dichlorophenyl)(phenoxy)methyl)azetidine hydrochloride]	100%	5.5 nM	60 nM	30 nM	50 nM	68.8 nM	–	98%	4.3 nM	–	–	–	–	inhibition at 10 µM [5, 11]: 94%
Cl.c1ccc(COC(c2ccccc2)C2CNC2)cc1 (centres unmarked) [KHG26768, 3-((benzyloxy)(phenyl)methyl)azetidine hydrochloride]	84%	2300 nM	1900 nM	800 nM	4600 nM	985 nM	90%	97%	82.9 nM	185 °C	–	–	–	–
Cl.Clc1ccc(C(OCc2ccccc2)C2CNC2)cc1 (centres unmarked) [KHG26769, 3-((benzyloxy)(4-chlorophenyl)methyl)azetidine hydrochloride]	94%	1340 nM	800 nM	500 nM	1500 nM	290 nM	84%	100%	21.6 nM	184 °C	–	–	–	–
Cl.Clc1ccc(C(OCc2ccccc2)C2CNC2)cc1Cl (centres unmarked) [KHG26770, 3-((benzyloxy)(3,4-dichlorophenyl)methyl)azetidine hydrochloride]	99%	93.1 nM	800 nM	700 nM	900 nM	23.2 nM	96%	98%	7.81 nM	128 °C	–	–	–	–
Cl.O=C(OC(c1ccc(Cl)cc1)C1CNC1)c1ccccc1 (centres unmarked) [KHG26772, azetidine-3-ly(4-chlorophenyl)methyl benzoate hydrochloride]	–	3480 nM	1300 nM	2500 nM	2600 nM	319 nM	–	–	357 nM	–	–	–	–	hNET binding assay %-inhibition (10 uM) [1, 7]: 90%; hDAT binding assay %-inhibition (10 uM) [5, 11]: 66%; hSERT binding assay %-inhibition (10 uM) [6, 9]: 96%
Cl.O=C(OC(c1ccc(Cl)c(Cl)c1)C1CNC1)c1ccccc1 (centres unmarked) [KHG26773, azetidine-3-ly(3,4-dichlorophenyl)methyl benzoate hydrochloride]	–	214 nM	500 nM	1100 nM	900 nM	241 nM	–	–	69.9 nM	–	–	–	–	hNET binding assay %-inhibition (10 uM) [1, 7]: 100%; hDAT binding assay %-inhibition (10 uM) [5, 11]: 97%; hSERT binding assay %-inhibition (10 uM) [6, 9]: 100%
Cc1ccccc1OC(c1ccc(Cl)c(Cl)c1)C1CNC1.Cl (centres unmarked) [KHG26774, 3-((3,4-dichlorophenyl)(ortho-tolyloxy)methyl)azetidine hydrochloride]	100%	25.8 nM	300 nM	2200 nM	800 nM	119 nM	96%	–	–	194 °C	–	–	–	IC50 [6]: 11.6 nM; inhibition at 10 µM [6]: 100%
Cc1cccc(OC(c2ccc(Cl)c(Cl)c2)C2CNC2)c1.Cl (centres unmarked) [KHG26775, 3-((3,4-dichlorophenyl)(meta-tolyloxy)methyl)azetidine hydrochloride]	100%	28.4 nM	400 nM	600 nM	600 nM	61.8 nM	99%	99%	19.8 nM	200 °C	–	–	–	–
Cc1ccc(OC(c2ccc(Cl)c(Cl)c2)C2CNC2)cc1.Cl (centres unmarked) [KHG26776, 3-((3,4-dichlorophenyl)(para-tolyloxy)methyl)azetidine hydrochloride]	–	–	300 nM	500 nM	700 nM	168 nM	95%	100%	5.67 nM	193 °C	–	–	–	IC50 [1]: 27.1 nM; inhibition at 10 µM [1]: 100%
CN1CC(C(Oc2ccccc2)c2ccc3ccccc3c2)C1 (centres unmarked) [KHG26907, 1-methyl-3-(naphthalene-2-yl(phenoxy)methyl)azetidine]	–	–	–	–	–	–	–	–	–	–	223 nM	87.9 nM	202 nM	–
CC(C)(C)OC(c1ccc(Cl)c(Cl)c1)C1CNC1.Cl (centres unmarked) [KHG27252, 3-(tertiarybutoxy(3,4-dichlorophenyl)methyl)azetidine hydrochloride]	–	–	–	–	–	–	–	–	–	159.9 °C	100 nM	96 nM	87 nM	–
Cl.Clc1ccc(C(OC2CCC2)C2CNC2)cc1Cl (centres unmarked) [KHG27253, 3-(cyclobutoxy(3,4-dichlorophenyl)methyl)azetidine hydrochloride]	–	–	–	–	–	–	–	–	–	166.1 °C	33.4 nM	11 nM	25.6 nM	–
Clc1ccc(C(OC2CCCC2)C2CNC2)cc1Cl (centres unmarked) [KHG27254, 3-((cyclopentyloxy)(3,4-dichlorophenyl)methyl)azetidine hydrochloride]	–	–	–	–	–	–	–	–	–	–	25.8 nM	15.8 nM	25.8 nM	–
Cl.Clc1ccc(C(OC2CCCCC2)C2CNC2)cc1Cl (centres unmarked) [KHG27255, 3-((cyclohexyloxy)(3,4-dichlorophenyl)methyl)azetidine hydrochloride]	–	–	–	–	–	–	–	–	–	189.4 °C	54.8 nM	14.2 nM	58.4 nM	–
CCCC(Oc1ccc2ccccc2c1)C1CNC1.Cl (centres unmarked) [KHG27284, 3-(1-(naphthalene-2-yloxy)butyl)azetidine hydrochloride]	–	–	–	–	–	–	–	–	–	77 °C	710 nM	79.5 nM	8.55 nM	–
